This is an account of results in patent US20110281951A1, “Compositions and methods for treating amyloidosis” (priority 1999, published 2011).

Each structure is given as a SMILES string. “And” between values parts separate entries of the source, which are not always exact repeats. Identical values can stand only once.

In assay [1] the target is T1, splenic Amyloid A fibrils (Mus musculus, UniProt P05367).
T1 construct: from tissue; host or cells: spleen of CBA/J mice (AEF/AgNO3-induced amyloidosis)
T1 sequence (P05367 20-95 limits assumed): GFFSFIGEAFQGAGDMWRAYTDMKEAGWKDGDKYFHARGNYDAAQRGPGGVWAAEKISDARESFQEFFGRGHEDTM
The assay is described as follows: Acute AEF-AgNO3-induced amyloidosis mouse model (secondary amyloidosis). Type of assay: in vivo, mice. Conditions: for % PC (splenic AA fibrils, % of positive control): 5 days; for Activity (in vivo, secondary amyloidosis): overall grade over the concentrations tested. How it is done: The in vivo screening is based on the acute AEF-AgNO3-induced amyloidosis mouse model. The test is conducted on a total of 6 days and each compound administered in the drinking solution for a 5-day period.
Female mice of CBA/J strain are individually identified, weighed and assigned to a group of 5 animals following an acclimation period. The amyloidosis is induced by intravenous injection of 100 μg of AEF (amyloid enhancing factor) concomitantly with a subcutaneous injection of 0.5 ml of 2% of a solution of AgNO3. Animals in the negative control group are injected with saline only.
Twenty-four hours following the amyloidosis induction, the compound is added to a 1% solution of sucrose (vehicle) and distributed to animals in drinking bottles for a period of 5 days. Animals in the positive control group receive the vehicle only. Drinking solutions are made available ad libitum to each group of animals and the volume measured before and after use to calculate the consumption of each solution. Blood samples are collected for in vitro determination of plasma serum amyloid A levels.
On day 6, mice are sacrificed, weighed and organs such as spleen are existed and fixed in acid alcohol. Spleen samples are processed, embedded in paraffin wax and cut inyo sections. Spleen sections from each animal are stained with the Congo Red staining solution and the splenic Amyloid A fibrils aggregation evaluated by image analysis. Results are expressed as % of AA fibrils deposited in the splenic perifollicular area. Raw data is analyzed.
Mean of mouse body weight and the mean consumption of the drinking solution (ml) are compiled. Variation of the body weight before the induction and at the end of the assay is calculated (%). The dose level of the compound consumed (mg/kg/day) is calculated as well.
P-values for Student t-test and Mann-Whitney tests comparing a group to the positive control are calculated using GraphPad Prism computer software. The mean of the image analysis reading of spleen serious for a group is expressed as percentage of the mean of the image analysis readings for the positive control group (% PC).

Assay [2] deals with T2, Aβ(1-40) (Homo sapiens, UniProt P05067).
T2 construct: Prepare a fresh 40 μm solution of Aβ(1-40) in 0.02M Tris, pH 7.4; made in house; host or cells: chemical synthesis (FMOC), HPLC purified
The assay is described as follows: Circular dichroism analysis, pre-incubation assay, β-sheet at 218 nm. Conditions: CD 218 nm, 0.02M Tris pH 7.4. Type of assay: biochemical. The protocol: The assay is conducted as follows:
Instrument: JASCO J-715 Spectropolarimeter.
Cell/cuvette: Hellma quartz (QS) with 1.0 mm pathlength Room temperature. Wavelength interval: 250 nm-190 nm.
Band width: 1.0 nm Response time: 1 sec Scanning speed: 20 nm/min Number of accumulations/spectrum: 5
1. Prepare a fresh 40 μm solution of Aβ(1-40) in 0.02M Tris, pH 7.4.
2. Prepare a 1 mM solution of test compounds in 0.02M Tris, pH 7.4.
3. Combine equal volumes of the Aβ(1-40) and test compound solutions.
4. Incubate the mixtures for 19 h.
5. Take the CD spectrum using the parameters above.
6. Return the mixtures to the incubator and incubate to 43 h.
7. Take the CD spectrum using the parameters above. • Inhibition of Aβ40 assembly/aggregation is determined by comparing the amount of b-sheet structure) appearing at lambda=218 nm) obtained in control and in treated sample at each timepoint.

Where [3] appears, read: 6.25 mg/ml in drinking solution.
Setting [4] is: 12.5 mg/ml in drinking solution.
Setting [5] is: 25.0 mg/ml in drinking solution.

T2 sequence (P05067 672-711 limits assumed): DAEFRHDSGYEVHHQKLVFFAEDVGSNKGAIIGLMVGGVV

On to `COc1cc2c(cc1OC)CN(CCCS(=O)(=O)O)CC2` [I, 3-[2-(6,7-dimethoxy-1,2,3,4-tetrahydroisoquinolinyl)]-1-propanesulfonic acid], for which the “% PC (splenic AA fibrils, % of positive control)” value (“% PC” for short) is 87 % PC in assay [1] (setting [3]); 76 % PC and 68 % PC in assay [1] (setting [4]); 69% PC in assay [1] (setting [5]). In assay [1], the “Activity (in vivo, secondary amyloidosis)” value (“Activity” for short) was “Moderate”.
As for `O=S(=O)(O)CCCN1CCCc2ccccc21` [III, 3-[1-(1,2,3,4-tetrahydroquinolinyl)]-1-propanesulfonic acid], the “% PC” value is 113% PC in assay [1] (3.5 mg/ml in drinking solution); 87% PC in assay [1] (setting [3]); 54 % PC and 67 % PC and 56 % PC in assay [1] (setting [4]); 82 % PC and 77 % PC in assay [1] (setting [5]). In addition, the “Activity” value in assay [1] is “Moderate”. For the same compound, the “relative inhibition compared to Aβ alone, incubation time 0 h” value (“relative inhibition … incubation time 0 h” for short) in assay [2] is “— (No effect compared to Aβ alone)”. Also, in assay [2], the “relative inhibition compared to Aβ alone, incubation time 19 h” value (shortened to “relative inhibition … incubation time 19 h”) is on record as “+ (+: 0-25%)”. Further, the “relative inhibition compared to Aβ alone, incubation time 43 h” value (“relative inhibition … incubation time 43 h” for short) in assay [2] was “++ (++: 25-50%)”.
Regarding `COc1ccc2c(c1)CCN(CCCS(=O)(=O)O)C2` [IX, 3-[2-(6-methoxy-1,2,3,4-tetrahydroisoquinolinyl)]-1-propanesulfonic acid], the “% PC” value in assay [1] (setting [3]) was 74 % PC and 40 % PC. The “% PC” value in assay [1] (setting [4]) was 64 % PC and 38 % PC. For the same compound, the “Activity” value in assay [1] is “Active”. Moreover, in assay [2], the “relative inhibition … incubation time 0 h” value is “+ (+: 0-25%)”; the “relative inhibition … incubation time 19 h” value was “+++ (+++: 50-75%)”; the “relative inhibition … incubation time 43 h” value was “++ (++: 25-50%)”.
As for `N[C@@H](Cc1cccc(CS(=O)(=O)O)c1)C(=O)O` [LVXIII, 3-Sulfomethyl-L-phenylalanine], in assay [2], the “relative inhibition … incubation time 0 h” value was “— (No effect compared to Aβ alone)”; the “relative inhibition … incubation time 19 h” value is “++++ (++++: 75-100%)”; the “relative inhibition … incubation time 43 h” value is reported as “— (No effect compared to Aβ alone)”.
For the compound `O=S(=O)(O)CCCN1CCc2ccccc21` [VII, 3-(1-indolinyl)-1-propanesulfonic acid], the “% PC” value in assay [1] (setting [3]) is 94 % PC and 91 % PC; in assay [1] (setting [4]) it was 83% PC; in assay [1] (setting [5]), 71 % PC and 97 % PC. Besides, the “Activity” value in assay [1] is “Moderate”. The “relative inhibition … incubation time 0 h” value in assay [2] is listed as “+ (+: 0-25%)”. In assay [2], the “relative inhibition … incubation time 19 h” value was “++ (++: 25-50%)”. In assay [2], the “relative inhibition … incubation time 43 h” value is on record as “++ (++: 25-50%)”.
As for `CC(=O)NCCCS(=O)(=O)O` [VIII, 3-acetylamino-1-propanesulfonic acid], in assay [2], the “relative inhibition … incubation time 0 h” value was “+ (+: 0-25%)”; the “relative inhibition … incubation time 19 h” value was “++++ (++++: 75-100%)”; the “relative inhibition … incubation time 43 h” value was “+++ (+++: 50-75%)”.
For the compound `O=C(NCCCS(=O)(=O)O)c1ccccc1` [X, 3-benzoylamino-1-propanesulfonic acid], in assay [2], the “relative inhibition … incubation time 0 h” value is given as “+ (+: 0-25%)”; the “relative inhibition … incubation time 19 h” value is recorded as “++ (++: 25-50%)”; the “relative inhibition … incubation time 43 h” value is on record as “++ (++: 25-50%)”.
Consider `O=S(=O)(O)CCCN1CCC2=C(CCCC2)C1` [XVIII, 3-[2-(1,2,3,4,5,6,7,8-octahydroisoquinolinyl)]-1-propanesulfonic acid], for which the entries for the “% PC” value in assay [1] (3.13 mg/ml in drinking solution) and in assay [1] (setting [3]) were 74% PC and 86% PC, respectively. Besides, the “Activity” value in assay [1] was “Moderate”.
As for `O=C[C@H](NCCCS(=O)(=O)O)[C@@H](O)[C@H](O)[C@H](O)CO` [XX, 2-deoxy-2-(3-sulfopropyl)amino-d-glucose], the “% PC” value came out at 94% PC in assay [1] (setting [3]) and 69% PC in assay [1] (setting [4]). Moreover, in assay [1], the “Activity” value is recorded as “Moderate”.
